Measurements taken from ChEMBL document CHEMBL5143534, “Synthesis and biological evaluation of BU-4664L derivatives as potential anticancer agents” (2022).

Legend:
PC-3 = assay: Antiproliferative activity against human PC-3 cells assessed as cell growth inhibition by MTT assay; type: functional
NCI-H460 = assay: Antiproliferative activity against human NCI-H460 cells assessed as cell growth inhibition by MTT assay; type: functional

| SMILES | GI50 (PC-3) | GI50 (NCI-H460) |
| --- | --- | --- |
| CC(C)=CCC/C(C)=C/CC/C(C)=C/CN1C(=O)c2cccc(O)c2Nc2c(O)cc(O)cc21 [DIAZEPINOMICIN] | 1.95 µM | 13.6 µM |
| CC(C)=CCC/C(C)=C/CC/C(C)=C/CN1C(=O)c2ccccc2Nc2cnc(Cl)nc21 | 5.94 µM | 19.9 µM |
| COc1ccc2c(c1)N(C/C=C(\C)CC/C=C(\C)CCC=C(C)C)C(=O)c1ccccc1N2 | 11 µM | 34.4 µM |
| COc1ccc(CN2C(=O)c3ccccc3Nc3ccc(OC)cc32)cc1 | 10.6 µM |  |
| COc1ccc(CN2C(=O)c3ccccc3Nc3cnc(Cl)nc32)cc1OC | 8.31 µM |  |
| COc1ccc2c(c1)N(Cc1cc(OC)c(OC)c(OC)c1)C(=O)c1ccccc1N2 | 10.2 µM | 34.8 µM |
| COc1ccc2c(c1)N(C/C=C/c1ccccc1)C(=O)c1ccccc1N2 | 7.37 µM | 36.6 µM |
| COc1ccc2c(c1)N(CC=C(C)C)C(=O)c1ccccc1N2 | 5.66 µM | 25.6 µM |
| COc1ccc2c(c1)N(C/C=C(\C)CCC=C(C)C)C(=O)c1ccccc1N2 | 10.8 µM | 43.9 µM |
| O=C1c2ccccc2Nc2cnc(Cl)nc2N1C/C=C/c1ccccc1 | 12.5 µM |  |
| COc1cc(CN2C(=O)c3ccccc3Nc3cnc(Cl)nc32)cc(OC)c1OC | 8.23 µM |  |
| CC(C)=CCC/C(C)=C/CN1C(=O)c2ccccc2Nc2cnc(Cl)nc21 | 7.29 µM | 24.3 µM |
| COc1ccc(CN2C(=O)c3ccccc3Nc3cnc(Cl)nc32)cc1 | 6.69 µM |  |
| COc1ccc2c(c1)N(Cc1ccc(OC)c(OC)c1)C(=O)c1ccccc1N2 | 12.5 µM | 44.4 µM |
| CC(C)=CCN1C(=O)c2ccccc2Nc2cnc(Cl)nc21 | 6.12 µM | 38.1 µM |
